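Assay format: 96-well plates, 48-hour exposure. At the GI50, growth is halved.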 The source made the active and inactive calls. No stated cut-off is given here; in the data, active = GI50 up to about 1.1 µM and inactive = higher.
Columns and labels:
Assay in all cases: NCI tumour cell line growth inhibition, 48 h
SF-295 = tested on: SF-295
K562 = tested on: K562
Malme-3M = tested on: Malme-3M
U-251 = tested on: U-251
SR = tested on: SR
MDA-MB-231 = tested on: MDA-MB-231
CCRF-CEM = tested on: CCRF-CEM
SF-268 = tested on: SF-268
MOLT-4 = tested on: MOLT-4
HCC 2998 = tested on: HCC 2998
SK-MEL-5 = tested on: SK-MEL-5
HOP-62 = tested on: HOP-62
RXF 393 = tested on: RXF 393
M14 = tested on: M14
LOX IMVI = tested on: LOX IMVI
NCI-H460 = tested on: NCI-H460
Hs-578T = tested on: Hs-578T
COLO 205 = tested on: COLO 205
ACHN = tested on: ACHN
HOP-92 = tested on: HOP-92
UO-31 = tested on: UO-31
SNB-19 = tested on: SNB-19
786-0 = tested on: 786-0
MDA-N = tested on: MDA-N
SNB-75 = tested on: SNB-75
HT-29 = tested on: HT-29
OVCAR-4 = tested on: OVCAR-4
SK-MEL-28 = tested on: SK-MEL-28
KM12 = tested on: KM12
RPMI-8226 = tested on: RPMI-8226
EKVX = tested on: EKVX
SW-620 = tested on: SW-620
IGROV-1 = tested on: IGROV-1
A498 = tested on: A498
MCF7 = tested on: MCF7
MDA-MB-435 = tested on: MDA-MB-435
CAKI-1 = tested on: CAKI-1
OVCAR-5 = tested on: OVCAR-5
NCI-H522 = tested on: NCI-H522
NCI/ADR-RES = tested on: NCI/ADR-RES
PC-3 = tested on: PC-3
SK-OV-3 = tested on: SK-OV-3
DU-145 = tested on: DU-145
BT-549 = tested on: BT-549
SF-539 = tested on: SF-539
NCI-H226 = tested on: NCI-H226
TK-10 = tested on: TK-10
HCT-116 = tested on: HCT-116
HL-60 = tested on: HL-60
SN12C = tested on: SN12C
SK-MEL-2 = tested on: SK-MEL-2
NCI-H23 = tested on: NCI-H23
OVCAR-3 = tested on: OVCAR-3
A549 = tested on: A549
UACC-257 = tested on: UACC-257

Measured: GI50

C=C(Cl)C(C)(Cl)CCC(Cl)C(C)(C)Cl (stereo not given)
inactive: SF-295 > 100 µM | K562 33.7 µM | Malme-3M 38.2 µM | U-251 46.9 µM | SR 23.8 µM | MDA-MB-231 32.7 µM | CCRF-CEM 30.3 µM | SF-268 89.9 µM | MOLT-4 23.9 µM | HCC 2998 > 100 µM | SK-MEL-5 50.5 µM | HOP-62 > 100 µM | RXF 393 35.1 µM | M14 70.8 µM | LOX IMVI 18.2 µM | NCI-H460 78.9 µM | Hs-578T 27 µM | COLO 205 44.8 µM | ACHN > 100 µM | HOP-92 25.9 µM | UO-31 37.6 µM | SNB-19 > 100 µM | 786-0 > 100 µM | MDA-N 44.2 µM | SNB-75 41.9 µM | HT-29 43.7 µM | OVCAR-4 53.7 µM | SK-MEL-28 > 100 µM | KM12 87.9 µM | RPMI-8226 20.5 µM | EKVX > 100 µM | SW-620 51.6 µM | IGROV-1 47.5 µM | A498 > 100 µM | MCF7 37.8 µM | MDA-MB-435 62.2 µM | CAKI-1 > 100 µM | OVCAR-5 > 100 µM | NCI-H522 23.1 µM | NCI/ADR-RES > 100 µM | PC-3 54.7 µM | SK-OV-3 > 100 µM | DU-145 > 100 µM | BT-549 > 100 µM | SF-539 > 100 µM | NCI-H226 42.3 µM | TK-10 > 100 µM | HCT-116 35.1 µM | HL-60 36.2 µM | SN12C 51.6 µM | SK-MEL-2 27.2 µM | NCI-H23 83.2 µM | OVCAR-3 46 µM | A549 44.8 µM | UACC-257 29.4 µM

— ChEMBL document CHEMBL1201862, “PubChem BioAssay data set” (2004)
